Reference: patent US20260070945A1, “MACROCYCLIC IMMUNOMODULATORS” (Bristol-Myers Squibb Company, priority 2022, published 2026)
pIC50: −log10 of the molar value. Where a SMILES comes first, the peptide text is derived from it. Bridges are numbered along the chain shown (N, C = ends). [ ]: non-standard residue; d: D form. The star is where a group is joined. Phe(4-COOH) = N[C@@H](Cc1ccc(C(=O)O)cc1)C(=O)O; Bip = N[C@@H](Cc1ccc(-c2ccccc2)cc1)C(=O)O; Phe(3-Me) = Cc1cccc(C[C@H](N)C(=O)O)c1; hArg = N=C(N)NCCCC[C@H](N)C(=O)O; hhGln = NC(=O)CCCC[C@H](N)C(=O)O; Cha = N[C@@H](CC1CCCCC1)C(=O)O; Cit = NC(=O)NCCC[C@H](N)C(=O)O; 12Ado = NCCCCCCCCCCCC(=O)O; Carboxymethyl = O=C(O)C*; NMeA = CN[C@@H](C)C(=O)O; Orn = NCCC[C@H](N)C(=O)O; Aun = NCCCCCCCCCCC(=O)O; Dab = NCC[C@H](N)C(=O)O; Abu = CC[C@H](N)C(=O)O; Dap = NC[C@H](N)C(=O)O; AEEA = NCCOCCOCC(=O)O

Target: T1, PD-1/PD-L1 interaction (PE-labeled human PD-L1-Ig binding to Jurkat cell line over-expressing human PD-1) (Homo sapiens, UniProt Q15116)
T1 construct: expressed in transfected cells; host or cells: Jurkat
T1 sequence (Q15116 25-288): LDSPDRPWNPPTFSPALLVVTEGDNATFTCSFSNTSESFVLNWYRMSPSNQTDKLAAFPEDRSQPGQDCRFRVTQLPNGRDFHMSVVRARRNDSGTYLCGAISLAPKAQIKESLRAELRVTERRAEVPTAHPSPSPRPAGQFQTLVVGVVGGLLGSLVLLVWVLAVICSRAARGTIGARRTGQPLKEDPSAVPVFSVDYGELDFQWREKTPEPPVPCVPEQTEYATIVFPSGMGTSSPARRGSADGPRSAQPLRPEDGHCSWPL
Assay: Jurkat-PD-1 Cell Binding High-Content Screening Assay (CBA)
Details: Jurkat-hPD-1 cells, PE-labeled PD-L1-Ig 20 nM final; read-out: Jurkat HPD1 PDL1 IC50
In short: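 Binding of 20 nM (final) PE-tagged PD-L1-Ig to compound-pretreated Jurkat-hPD-1 cells was measured by high-content imaging after 1 h. Pretreatment ran 2 h at 37 °C in DMEM with 10% fetal calf serum.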

| pIC50 | Structure (SMILES) |
| --- | --- |
| 7.80 | Cc1cccc(C[C@@H]2NC(=O)[C@H](CC(=O)O)NC(=O)[C@H](Cc3ccc(OCC(=O)O)cc3)NC(=O)[C@H](CCCCNC(=N)N)NC(=O)CSC[C@@H](C(=O)N[C@@H](CO)C(=O)NCCOCCOCC(=O)N[C@@H](CCCN)C(=O)NCCCCCCCCCCCC(=O)O)NC(=O)[C@H](CO)NC(=O)[C@H](C(C)C)NC(=O)[C@H](CC3CCCCC3)NC(=O)[C@H](CCN)NC(=O)[C@@H](CC(C)C)NC(=O)[C@H](C)N(C)C(=O)[C@H](C(C)C)NC(=O)[C@H](Cc3ccc(-c4ccccc4)cc3)NC(=O)[C@H](CC(C)C)NC2=O)c1 [Example 2122] ({CH2CO}-[hArg]Y(Carboxymethyl)D[Phe(3-Me)]L[Bip]V[NMeA][dL][Dab][Cha]VSCS[AEEA][Orn][12Ado]-OH; thioether N-14) |
| 7.94 | CC(C)C[C@@H]1NC(=O)[C@H](Cc2c[nH]c3ccccc23)NC(=O)[C@H](CC(=O)O)NC(=O)[C@H](Cc2ccc(OCC(=O)O)cc2)NC(=O)[C@H](CCCCNC(=N)N)NC(=O)CSC[C@@H](C(=O)NCC(=O)NCCOCCOCC(=O)N[C@@H](CCCN)C(=O)NCCCCCCCCCCCC(=O)O)NC(=O)[C@H](CO)NC(=O)[C@H](C(C)C)NC(=O)[C@H](CC2CCCCC2)NC(=O)[C@H](CCN)NC(=O)[C@@H](CC(C)C)NC(=O)[C@H](C)N(C)C(=O)[C@H](C(C)C)NC(=O)[C@H](Cc2ccc(-c3ccccc3)cc2)NC1=O [Example 2123] ({CH2CO}-[hArg]Y(Carboxymethyl)DWL[Bip]V[NMeA][dL][Dab][Cha]VSCG[AEEA][Orn][12Ado]-OH; thioether N-14) |
| 7.77 | CC[C@@H]1NC(=O)[C@H](C(C)C)NC(=O)[C@H](CC2CCCCC2)NC(=O)[C@H](CCN)NC(=O)[C@@H](CC(C)C)NC(=O)[C@H](C)N(C)C(=O)[C@H](C(C)C)NC(=O)[C@H](Cc2ccc(-c3ccccc3)cc2)NC(=O)[C@H](CC(C)C)NC(=O)[C@H](Cc2c[nH]c3ccccc23)NC(=O)[C@H](CC(=O)O)NC(=O)[C@H](Cc2ccc(OCC(=O)O)cc2)NC(=O)[C@H](CCCCNC(=N)N)NC(=O)CSC[C@@H](C(=O)NCC(=O)NCCOCCOCC(=O)N[C@@H](CCCN)C(=O)NCCCCCCCCCCCC(=O)O)NC1=O [Example 2124] ({CH2CO}-[hArg]Y(Carboxymethyl)DWL[Bip]V[NMeA][dL][Dab][Cha]V[Abu]CG[AEEA][Orn][12Ado]-OH; thioether N-14) |
| 7.94 | CC(C)C[C@@H]1NC(=O)[C@H](Cc2c[nH]c3ccccc23)NC(=O)[C@H](CC(=O)O)NC(=O)[C@H](Cc2ccc(C(=O)O)cc2)NC(=O)[C@H](Cc2ccc(OCC(=O)O)cc2)NC(=O)CSC[C@@H](C(=O)N[C@@H](CCCN)C(=O)NCCOCCOCC(=O)NCCCCCCCCCCC(=O)O)NC(=O)[C@H](CC(=O)O)NC(=O)[C@H](C(C)C)NC(=O)[C@H](CC2CCCCC2)NC(=O)[C@H](CCN)NC(=O)[C@@H](CC(C)C)NC(=O)[C@H](C)N(C)C(=O)[C@H](C(C)C)NC(=O)[C@H](Cc2ccc(-c3ccccc3)cc2)NC1=O [Example 2125] ({CH2CO}-Y(Carboxymethyl)[Phe(4-COOH)]DWL[Bip]V[NMeA][dL][Dab][Cha]VDC[Orn][AEEA][Aun]-OH; thioether N-14) |
| 8.08 | CC(C)C[C@@H]1NC(=O)[C@H](Cc2c[nH]c3ccccc23)NC(=O)[C@H](CC(=O)O)NC(=O)[C@H](Cc2ccc(C(=O)O)cc2)NC(=O)[C@H](Cc2ccc(OCC(=O)O)cc2)NC(=O)CSC[C@@H](C(=O)N[C@@H](CCCN)C(=O)NCCOCCOCC(=O)NCCCCCCCCCCC(=O)O)NC(=O)[C@H](CCC(=O)O)NC(=O)[C@H](C(C)C)NC(=O)[C@H](CC2CCCCC2)NC(=O)[C@H](CCN)NC(=O)[C@@H](CC(C)C)NC(=O)[C@H](C)N(C)C(=O)[C@H](C(C)C)NC(=O)[C@H](Cc2ccc(-c3ccccc3)cc2)NC1=O [Example 2126] ({CH2CO}-Y(Carboxymethyl)[Phe(4-COOH)]DWL[Bip]V[NMeA][dL][Dab][Cha]VEC[Orn][AEEA][Aun]-OH; thioether N-14) |
| 7.98 | CC(C)C[C@@H]1NC(=O)[C@H](Cc2c[nH]c3ccccc23)NC(=O)[C@H](CC(=O)O)NC(=O)[C@H](Cc2ccc(C(=O)O)cc2)NC(=O)[C@H](Cc2ccc(OCC(=O)O)cc2)NC(=O)CSC[C@@H](C(=O)N[C@@H](CCN)C(=O)NCCOCCOCC(=O)NCCCCCCCCCCC(=O)O)NC(=O)[C@H](CCCNC(N)=O)NC(=O)[C@H](C(C)C)NC(=O)[C@H](CC2CCCCC2)NC(=O)[C@H](CCN)NC(=O)[C@@H](CC(C)C)NC(=O)[C@H](C)N(C)C(=O)[C@H](C(C)C)NC(=O)[C@H](Cc2ccc(-c3ccccc3)cc2)NC1=O [Example 2127] ({CH2CO}-Y(Carboxymethyl)[Phe(4-COOH)]DWL[Bip]V[NMeA][dL][Dab][Cha]V[Cit]C[Dab][AEEA][Aun]-OH; thioether N-14) |
| 8.05 | CC(C)C[C@@H]1NC(=O)[C@H](Cc2c[nH]c3ccccc23)NC(=O)[C@H](CC(=O)O)NC(=O)[C@H](Cc2ccc(C(=O)O)cc2)NC(=O)[C@H](Cc2ccc(OCC(=O)O)cc2)NC(=O)CSC[C@@H](C(=O)N[C@@H](CCCN)C(=O)NCCOCCOCC(=O)NCCCCCCCCCCC(=O)O)NC(=O)[C@H](CCCCC(N)=O)NC(=O)[C@H](C(C)C)NC(=O)[C@H](CC2CCCCC2)NC(=O)[C@H](CCN)NC(=O)[C@@H](CC(C)C)NC(=O)[C@H](C)N(C)C(=O)[C@H](C(C)C)NC(=O)[C@H](Cc2ccc(-c3ccccc3)cc2)NC1=O [Example 2128] ({CH2CO}-Y(Carboxymethyl)[Phe(4-COOH)]DWL[Bip]V[NMeA][dL][Dab][Cha]V[hhGln]C[Orn][AEEA][Aun]-OH; thioether N-14) |
| 7.95 | CC(C)C[C@@H]1NC(=O)[C@H](Cc2c[nH]c3ccccc23)NC(=O)[C@H](CC(=O)O)NC(=O)[C@H](Cc2ccc(OCC(=O)O)cc2)NC(=O)[C@H](Cc2ccc(OCC(=O)O)cc2)NC(=O)CSC[C@@H](C(=O)N[C@@H](CCCN)C(=O)NCCOCCOCC(=O)NCCCCCCCCCCC(=O)O)NC(=O)[C@H](CCCCC(N)=O)NC(=O)[C@H](C(C)C)NC(=O)[C@H](CC2CCCCC2)NC(=O)[C@H](CCN)NC(=O)[C@@H](CC(C)C)NC(=O)[C@H](C)N(C)C(=O)[C@H](C(C)C)NC(=O)[C@H](Cc2ccc(-c3ccccc3)cc2)NC1=O [Example 2129] ({CH2CO}-Y(Carboxymethyl)Y(Carboxymethyl)DWL[Bip]V[NMeA][dL][Dab][Cha]V[hhGln]C[Orn][AEEA][Aun]-OH; thioether N-14) |
| 7.93 | CC(C)C[C@@H]1NC(=O)[C@H](Cc2c[nH]c3ccccc23)NC(=O)[C@H](CC(=O)O)NC(=O)[C@H](Cc2ccc(OCC(=O)O)cc2)NC(=O)[C@H](Cc2ccc(OCC(=O)O)cc2)NC(=O)CSC[C@@H](C(=O)N[C@@H](CCCN)C(=O)NCCOCCOCC(=O)NCCCCCCCCCCC(=O)O)NC(=O)[C@H](CO)NC(=O)[C@H](C(C)C)NC(=O)[C@H](CC2CCCCC2)NC(=O)[C@H](CCN)NC(=O)[C@@H](CC(C)C)NC(=O)[C@H](C)N(C)C(=O)[C@H](C(C)C)NC(=O)[C@H](Cc2ccc(-c3ccccc3)cc2)NC1=O [Example 2130] ({CH2CO}-Y(Carboxymethyl)Y(Carboxymethyl)DWL[Bip]V[NMeA][dL][Dab][Cha]VSC[Orn][AEEA][Aun]-OH; thioether N-14) |
| 7.72 | CC(C)C[C@@H]1NC(=O)[C@H](Cc2c[nH]c3ccccc23)NC(=O)[C@H](CC(=O)O)NC(=O)[C@H](Cc2ccc(C(=O)O)cc2)NC(=O)[C@H](Cc2ccc(OCC(=O)O)cc2)NC(=O)CSC[C@@H](C(=O)N[C@@H](CCCN)C(=O)NCCOCCOCC(=O)NCCCCCCCCCCCC(=O)O)NC(=O)[C@H](CO)NC(=O)[C@H](C(C)C)NC(=O)[C@H](CC2CCCCC2)NC(=O)[C@H](CCN)NC(=O)[C@@H](CC(C)C)NC(=O)[C@H](C)N(C)C(=O)[C@H](C(C)C)NC(=O)[C@H](Cc2ccc(-c3ccccc3)cc2)NC1=O [Example 2131] ({CH2CO}-Y(Carboxymethyl)[Phe(4-COOH)]DWL[Bip]V[NMeA][dL][Dab][Cha]VSC[Orn][AEEA][12Ado]-OH; thioether N-14) |
| 8.09 | CC(C)C[C@@H]1NC(=O)[C@H](Cc2c[nH]c3ccccc23)NC(=O)[C@H](CC(=O)O)NC(=O)[C@H](Cc2ccc(C(=O)O)cc2)NC(=O)[C@H](Cc2ccc(OCC(=O)O)cc2)NC(=O)CSC[C@@H](C(=O)N[C@@H](CN)C(=O)NCCOCCOCC(=O)NCCCCCCCCCCC(=O)O)NC(=O)[C@H](CCCNC(N)=O)NC(=O)[C@H](C(C)C)NC(=O)[C@H](CC2CCCCC2)NC(=O)[C@H](CCN)NC(=O)[C@@H](CC(C)C)NC(=O)[C@H](C)N(C)C(=O)[C@H](C(C)C)NC(=O)[C@H](Cc2ccc(-c3ccccc3)cc2)NC1=O [Example 2132] ({CH2CO}-Y(Carboxymethyl)[Phe(4-COOH)]DWL[Bip]V[NMeA][dL][Dab][Cha]V[Cit]C[Dap][AEEA][Aun]-OH; thioether N-14) |
| 7.63 | CC(C)C[C@@H]1NC(=O)[C@H](Cc2c[nH]c3ccccc23)NC(=O)[C@H](CC(=O)O)NC(=O)[C@H](Cc2ccc(C(=O)O)cc2)NC(=O)[C@H](Cc2ccc(OCC(=O)O)cc2)NC(=O)CSC[C@@H](C(=O)N[C@@H](CCCN)C(=O)NCCOCCOCC(=O)NCCCCCCCCCCC(=O)O)NC(=O)[C@H](CO)NC(=O)[C@H](C(C)C)NC(=O)[C@H](CC2CCCCC2)NC(=O)[C@H](CCCCN)NC(=O)[C@@H](CC(C)C)NC(=O)[C@H](C)N(C)C(=O)[C@H](C(C)C)NC(=O)[C@H](Cc2ccc(-c3ccccc3)cc2)NC1=O [Example 2133] ({CH2CO}-Y(Carboxymethyl)[Phe(4-COOH)]DWL[Bip]V[NMeA][dL]K[Cha]VSC[Orn][AEEA][Aun]-OH; thioether N-14) |
| 7.49 | CC(C)C[C@@H]1NC(=O)[C@H](Cc2c[nH]c3ccccc23)NC(=O)[C@H](CC(=O)O)NC(=O)[C@H](Cc2ccc(C(=O)O)cc2)NC(=O)[C@H](Cc2ccc(OCC(=O)O)cc2)NC(=O)CSC[C@@H](C(=O)N[C@@H](CCCN)C(=O)NCCOCCOCC(=O)NCCCCCCCCCCC(=O)O)NC(=O)[C@H](CN)NC(=O)[C@H](C(C)C)NC(=O)[C@H](CC2CCCCC2)NC(=O)[C@H](CCN)NC(=O)[C@@H](CC(C)C)NC(=O)[C@H](C)N(C)C(=O)[C@H](C(C)C)NC(=O)[C@H](Cc2ccc(-c3ccccc3)cc2)NC1=O [Example 2134] ({CH2CO}-Y(Carboxymethyl)[Phe(4-COOH)]DWL[Bip]V[NMeA][dL][Dab][Cha]V[Dap]C[Orn][AEEA][Aun]-OH; thioether N-14) |
